Data from ChEMBL document CHEMBL1142532, “Modular synthesis of non-peptidic bivalent NPY Y1 receptor antagonists” (Bioorg Med Chem, 2008).

Columns and labels:
[1] = molecular target: T1, Neuropeptide Y receptor type 1 (Homo sapiens) (UniProt P25929); assay: Antagonist activity at NPY Y1 receptor in HEL cells assessed as inhibition of NPY-induced increase in intracellular calcium mobilization by Fura-2 assay; type: functional, cell-based
T1 sequence (whole entry): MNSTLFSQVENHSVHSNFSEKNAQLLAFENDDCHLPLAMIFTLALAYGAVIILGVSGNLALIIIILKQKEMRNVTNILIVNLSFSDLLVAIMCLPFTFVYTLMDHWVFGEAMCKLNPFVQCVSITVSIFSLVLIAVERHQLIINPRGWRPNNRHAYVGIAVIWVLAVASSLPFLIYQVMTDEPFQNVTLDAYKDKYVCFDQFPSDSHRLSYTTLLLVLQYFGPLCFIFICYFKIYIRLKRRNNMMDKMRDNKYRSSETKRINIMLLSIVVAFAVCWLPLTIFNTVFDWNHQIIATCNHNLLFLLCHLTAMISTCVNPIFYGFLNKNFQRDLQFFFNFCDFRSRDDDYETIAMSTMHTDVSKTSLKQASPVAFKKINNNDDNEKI

[2] = molecular target: T2, Neuropeptide Y receptor type 1 (Homo sapiens, UniProt P25929); assay: Displacement of NG-([2,3-3H]propionyl)-BIBP-3226 from NPY Y1 receptor in human SK-N-MC cells; type: cell-based
T2 sequence (P25929 whole entry): T1 sequence (whole entry)

Row | Kb [1] | Ki [2] | Compound
1 | 0.6 nM | 43 nM | N/C(=N/C(=O)CCCn1cc(-c2ccc(-c3cn(CCCC(=O)/N=C(\N)NCCC[C@@H](NC(=O)C(c4ccccc4)c4ccccc4)C(=O)NCc4ccc(O)cc4)nn3)cc2)nn1)NCCC[C@@H](NC(=O)C(c1ccccc1)c1ccccc1)C(=O)NCc1ccc(O)cc1
2 | 7 nM | 6.1 nM | N/C(=N/C(=O)COCCOCCOCC(=O)/N=C(\N)NCCC[C@@H](NC(=O)C(c1ccccc1)c1ccccc1)C(=O)NCc1ccc(O)cc1)NCCC[C@@H](NC(=O)C(c1ccccc1)c1ccccc1)C(=O)NCc1ccc(O)cc1
3 | 0.9 nM | 49 nM | N/C(=N/C(=O)CCCn1cc(-c2ccccc2)nn1)NCCC[C@@H](NC(=O)C(c1ccccc1)c1ccccc1)C(=O)NCc1ccc(O)cc1
4 |  | > 50000 nM | N/C(=N/C(=O)c1ccc(Cn2cc(CN(Cc3cn(Cc4ccc(C(=O)/N=C(/N)NCCC[C@@H](NC(=O)C(c5ccccc5)c5ccccc5)C(=O)NCc5ccc(O)cc5)cc4)nn3)Cc3cn(Cc4ccc(C(=O)/N=C(/N)NCCC[C@@H](NC(=O)C(c5ccccc5)c5ccccc5)C(=O)NCc5ccc(O)cc5)cc4)nn3)nn2)cc1)NCCC[C@@H](NC(=O)C(c1ccccc1)c1ccccc1)C(=O)NCc1ccc(O)cc1
5 | 1.8 nM | 58 nM | N/C(=N/C(=O)CCCn1cc(COCCOCCOCCOCCOCc2cn(CCCC(=O)/N=C(\N)NCCC[C@@H](NC(=O)C(c3ccccc3)c3ccccc3)C(=O)NCc3ccc(O)cc3)nn2)nn1)NCCC[C@@H](NC(=O)C(c1ccccc1)c1ccccc1)C(=O)NCc1ccc(O)cc1
